Assay results published in patent US8940909B2, “Indicator platform” (Biosynth AG, priority 2009, dated 2015).

Legend:
[1] = test system: bacteria producing various biomarker enzymes; assay: IO staining of colonies of bacteria producing various biomarker enzymes (Table IVc); assay type: cell-based; settings: for F: Fluorescence of colonies (hue): hue of fluorescence of stained colonies, 24 h on agar containing the indicator (Table IVc)
[2] = test system: beta-galactosidase positive Eschericha coli (NM1); assay: IO staining of bacterial colonies on Nutrient Agar (color, fluorescence, localization, growth); on C: Color of colonies (strength): key: −: absent; +/−: weak; +: strong; ++: very strong; on F: Fluorescence of colonies (strength): key: −: absent; +/−: weak; +: strong; ++: very strong; on G: Growth of colonies: key: −: absent; +/−: weak; +: strong; ++: very strong; on L: Localization of stain on colonies: key: −: absent; +/−: weak; +: strong; ++: very strong; assay type: cell-based, E. coli; settings: 150 mg/l substrate and 100 mg/l IPTG
Description: Nutrient Agar (5 g/l peptone, 5 g/l NaCl, 2 g/l yeast extract, 1 g/l beef extract, 13 g/l agar, pH 7.4) was autoclaved and allowed to cool to 50° C. Then indicators were added to final concentrations of 150 mg/l (from a 20 mg/ml stock solution in DMF).
Optionally IPTG was added to 100 mg/l (from a 100 mg/ml stock solution in H2O) and plates were poured. Agar plates were inoculated with cultures of beta-galactosidase positive Eschericha coli (NM1) or beta-galactosidase negative Salmonella enteritidis (RKI 05/07992) (pre-grown on nutrient broth for 8-18 hours) and incubated at 37° C. Plates were inspected at 16, 20, 24 and 48 hours and pictures were recorded at 18, 24, and 48 hours with a Digistore 2 Image documentation system (CAMAG) under white light.
A considerable number of indicators molecules (Table IVa, IVb) and a selection of labile groups (Table IVc) were tested with various microbial species producing different biomarker enzymes (external stimuli, eS). The color of stains ranges from yellow to red.
Plating media from Example 10 were examined under 366 nm UV irradiation at 16, 20, 24 and 48 hours for fluorescence by means of Digistore 2 Image documentation system (CAMAG). Loops of bacterial cells, grown for 48 hours on Nutrient Agar plates containing 150 mg/l beta-D-galactosidase indicator and 100 mg/l IPTG, were directly streaked into wells of black clear bottom microtiter plates. Fluorescence scans were recorded on a Spectramax M5 (Molecular Devices).

[3] = Bacillus cereus strain 51, plc +, 24 h on Tryptic Soy Agar, 0.78 mM PC PLC Indicator, 3.2 g/l BSA, 0.05% Tween80, 5 mM MnCl2
[4] = Bacillus cereus strain 191, plc +, 24 h on Tryptic Soy Agar, 0.78 mM PC PLC Indicator, 3.2 g/l BSA, 0.05% Tween80, 5 mM MnCl2
[5] = Bacillus cereus strain 192, plc +, 24 h on Tryptic Soy Agar, 0.78 mM PC PLC Indicator, 3.2 g/l BSA, 0.05% Tween80, 5 mM MnCl2
[6] = Bacillus cereus strain 289, plc +, 24 h on Tryptic Soy Agar, 0.78 mM PC PLC Indicator, 3.2 g/l BSA, 0.05% Tween80, 5 mM MnCl2
[7] = Bacillus mycoides strain 64, plc +, 24 h on Tryptic Soy Agar, 0.78 mM PC PLC Indicator, 3.2 g/l BSA, 0.05% Tween80, 5 mM MnCl2
[8] = Bacillus thuringiensis strain 66, plc +, 24 h on Tryptic Soy Agar, 0.78 mM PC PLC Indicator, 3.2 g/l BSA, 0.05% Tween80, 5 mM MnCl2
[9] = Escherichia coli strain 61, plc +/−, 24 h on Tryptic Soy Agar, 0.78 mM PC PLC Indicator, 3.2 g/l BSA, 0.05% Tween80, 5 mM MnCl2
[10] = Escherichia coli strain 270, plc +/−, 24 h on Tryptic Soy Agar, 0.78 mM PC PLC Indicator, 3.2 g/l BSA, 0.05% Tween80, 5 mM MnCl2
[11] = Listeria monocytogenes (4b) strain 290, plc +, 24 h on Tryptic Soy Agar, 0.78 mM PC PLC Indicator, 3.2 g/l BSA, 0.05% Tween80, 5 mM MnCl2
[12] = Pseudomonas aeruginosa strain 168, plc +, 24 h on Tryptic Soy Agar, 0.78 mM PC PLC Indicator, 3.2 g/l BSA, 0.05% Tween80, 5 mM MnCl2
[13] = Pseudomonas aeruginosa strain 168, plc +, 24 h on Tryptic Soy Agar, 0.78 mM PC PLC Indicator, 3.2 g/l BSA, 0.05% Tween80, 5 mM MnCl2, natural color, same on agar without substrate
[14] = Pseudomonas aeruginosa strain 168, plc +, 24 h on Tryptic Soy Agar, 0.78 mM PC PLC Indicator, 3.2 g/l BSA, 0.05% Tween80, 5 mM MnCl2, natural fluorescence, same on agar without substrate
[15] = Bacillus cereus strain 289, 24 h on Nutrient Agar, 0.52 mM C1-Esterase Indicator
[16] = Escherichia coli strain 270, 24 h on Nutrient Agar, 0.52 mM C1-Esterase Indicator
[17] = Klebsiella pneumoniae strain 164, 24 h on Nutrient Agar, 0.52 mM C1-Esterase Indicator
[18] = Escherichia coli strain 61, glucuronidase +, 24 h on Nutrient Agar, 0.45 mM beta-D-Glucuronidase Indicator
[19] = Escherichia coli strain 62, glucuronidase +, 24 h on Nutrient Agar, 0.45 mM beta-D-Glucuronidase Indicator
[20] = Escherichia coli strain 270, glucuronidase +, 24 h on Nutrient Agar, 0.45 mM beta-D-Glucuronidase Indicator
[21] = Klebsiella pneumoniae strain 164, glucuronidase −, 24 h on Nutrient Agar, 0.45 mM beta-D-Glucuronidase Indicator
[22] = Enterobacter aerogenes strain 242, a-glucosidase −, 24 h on Nutrient Agar, 150 mg/l alpha-D-Glucosidase Indicator
[23] = Enterobacter cloacae strain 245, a-glucosidase −, 24 h on Nutrient Agar, 150 mg/l alpha-D-Glucosidase Indicator
[24] = Enterobacter sakazakii strain 141, a-glucosidase +, 24 h on Nutrient Agar, 150 mg/l alpha-D-Glucosidase Indicator
[25] = Enterobacter sakazakii strain 142, a-glucosidase +, 24 h on Nutrient Agar, 150 mg/l alpha-D-Glucosidase Indicator
[26] = Escherichia coli strain 270, a-glucosidase −, 24 h on Nutrient Agar, 150 mg/l alpha-D-Glucosidase Indicator
[27] = Shigella sonnei strain 133, a-glucosidase −, 24 h on Nutrient Agar, 150 mg/l alpha-D-Glucosidase Indicator

1-[2-(2,4-Dimethoxybenzoyl)phenyl]-1H-indol-3-yl choline phosphate [Indicator I25d]
−: C: Color of colonies [1, 11] | F: Fluorescence of colonies [1, 11]
+: C: Color of colonies [1, 3] | G: Growth of colonies [1, 3] | C: Color of colonies [1, 4] | G: Growth of colonies [1, 4] | G: Growth of colonies [1, 5] | C: Color of colonies [1, 6] | G: Growth of colonies [1, 6] | C: Color of colonies [1, 7] | G: Growth of colonies [1, 7] | C: Color of colonies [1, 8] | G: Growth of colonies [1, 8] | G: Growth of colonies [1, 9] | G: Growth of colonies [1, 10] | G: Growth of colonies [1, 11] | G: Growth of colonies [1, 12]
y-g^1: C: Color of colonies [1, 13]
b^2: F: Fluorescence of colonies [1, 14]
y-g: F: Fluorescence of colonies (hue) [1]
+/−: C: Color of colonies [1, 9] | F: Fluorescence of colonies [1, 9] | C: Color of colonies [1, 10] | F: Fluorescence of colonies [1, 10]
++: F: Fluorescence of colonies [1, 3] | F: Fluorescence of colonies [1, 4] | C: Color of colonies [1, 5] | F: Fluorescence of colonies [1, 5] | F: Fluorescence of colonies [1, 6] | F: Fluorescence of colonies [1, 7] | F: Fluorescence of colonies [1, 8]

CC(=O)Oc1c[nH]c2ccc(Br)c(Cl)c12 [Indicator I4c, 5-Bromo-4-chloro-1H-indol-3-yl acetate, reference compound]
+/−: G: Growth of colonies [1, 16]
+: C: Color of colonies [1, 17] | G: Growth of colonies [1, 17]
−: C: Color of colonies [1, 15] | F: Fluorescence of colonies [1, 15] | G: Growth of colonies [1, 15] | C: Color of colonies [1, 16] | F: Fluorescence of colonies [1, 16] | F: Fluorescence of colonies [1, 17] | F: Fluorescence of colonies (hue) [1]

O=C([O-])[C@H]1O[C@@H](Oc2c[nH]c3cc(Cl)ccc23)[C@H](O)[C@@H](O)[C@@H]1O.[Na+] [Indicator I3f, 6-Chloro-1H-indol-3-yl-beta-D-glucuronide sodium salt, reference compound]
−: F: Fluorescence of colonies [1, 18] | F: Fluorescence of colonies [1, 19] | F: Fluorescence of colonies [1, 20] | C: Color of colonies [1, 21] | F: Fluorescence of colonies [1, 21]
+: C: Color of colonies [1, 18] | G: Growth of colonies [1, 18] | C: Color of colonies [1, 19] | G: Growth of colonies [1, 19] | C: Color of colonies [1, 20] | G: Growth of colonies [1, 20] | G: Growth of colonies [1, 21]

5-Bromo-4-chloro-1H-indol-3-yl choline phosphate [Indicator I4d, reference compound]
+/−: C: Color of colonies [1, 3] | C: Color of colonies [1, 4] | C: Color of colonies [1, 8] | C: Color of colonies [1, 10]
++: C: Color of colonies [1, 5]
y-g^1: C: Color of colonies [1, 13]
−: F: Fluorescence of colonies [1, 3] | F: Fluorescence of colonies [1, 4] | F: Fluorescence of colonies [1, 5] | C: Color of colonies [1, 6] | F: Fluorescence of colonies [1, 6] | F: Fluorescence of colonies [1, 7] | F: Fluorescence of colonies [1, 8] | F: Fluorescence of colonies [1, 9] | F: Fluorescence of colonies [1, 10] | C: Color of colonies [1, 11] | F: Fluorescence of colonies [1, 11] | F: Fluorescence of colonies (hue) [1]
b^2: F: Fluorescence of colonies [1, 14]
+: G: Growth of colonies [1, 3] | G: Growth of colonies [1, 4] | G: Growth of colonies [1, 5] | G: Growth of colonies [1, 6] | C: Color of colonies [1, 7] | G: Growth of colonies [1, 7] | G: Growth of colonies [1, 8] | C: Color of colonies [1, 9] | G: Growth of colonies [1, 9] | G: Growth of colonies [1, 10] | G: Growth of colonies [1, 11] | G: Growth of colonies [1, 12]

O=C(c1ccccc1)c1ccccc1-n1cc(O[C@@H]2O[C@H](C(=O)[O-])[C@@H](O)[C@H](O)[C@H]2O)c2ccc(Cl)cc21.[Na+] [Indicator I21f, 1-(2-Benzoylphenyl)-6-chloro-1H-indol-3-yl-beta-D-glucuronide sodium salt]
y-o: F: Fluorescence of colonies (hue) [1]
+: C: Color of colonies [1, 18] | G: Growth of colonies [1, 18] | C: Color of colonies [1, 19] | G: Growth of colonies [1, 19] | C: Color of colonies [1, 20] | G: Growth of colonies [1, 20] | G: Growth of colonies [1, 21]
+/−: F: Fluorescence of colonies [1, 18] | F: Fluorescence of colonies [1, 19] | F: Fluorescence of colonies [1, 20]
−: C: Color of colonies [1, 21] | F: Fluorescence of colonies [1, 21]

O=C(c1ccccc1)c1ccc(Cl)cc1-n1cc(O[C@@H]2O[C@H](CO)[C@H](O)[C@H](O)[C@H]2O)c2ccc(Cl)cc21 [Indicator I23a, 1-(2-Benzoyl-5-chlorophenyl)-6-chloro-1H-indol-3-yl-beta-D-galactopyranoside]
yellow: C: Color of colonies (colour of stain) ([2]; 24 h on Nutrient Agar)
+: G: Growth of colonies ([2]; E. coli, 24 h) | L: Localization of stain on colonies ([2]; E. coli, 24 h) | F: Fluorescence of colonies (strength) ([2]; E. coli, 24 h, 366 nm UV) | C: Color of colonies (strength) ([2]; E. coli, 24 h on Nutrient Agar)
green-yellow: F: Fluorescence of colonies (colour) ([2]; 24 h, 366 nm UV)

O=C(c1ccccc1)c1ccccc1-n1cc(O[C@H]2O[C@H](CO)[C@@H](O)[C@H](O)[C@H]2O)c2ccc(Cl)cc21 [Indicator I21e, 1-(2-Benzoylphenyl)-6-chloro-1H-indol-3-yl-alpha-D-glucopyranoside]
+/−: F: Fluorescence of colonies [1, 24] | F: Fluorescence of colonies [1, 25]
y-g: F: Fluorescence of colonies (hue) [1]
−: C: Color of colonies [1, 22] | F: Fluorescence of colonies [1, 22] | C: Color of colonies [1, 23] | F: Fluorescence of colonies [1, 23] | C: Color of colonies [1, 26] | F: Fluorescence of colonies [1, 26] | C: Color of colonies [1, 27] | F: Fluorescence of colonies [1, 27]
+: G: Growth of colonies [1, 22] | G: Growth of colonies [1, 23] | C: Color of colonies [1, 24] | G: Growth of colonies [1, 24] | C: Color of colonies [1, 25] | G: Growth of colonies [1, 25] | G: Growth of colonies [1, 26] | G: Growth of colonies [1, 27]

CC(=O)Oc1cn(-c2ccccc2C(=O)c2ccccc2)c2ccccc12 [Indicator I19c, 1-(2-Benzoylphenyl)-1H-indol-3-yl acetate]
+/−: C: Color of colonies [1, 16]
+: G: Growth of colonies [1, 15] | G: Growth of colonies [1, 16] | C: Color of colonies [1, 17] | G: Growth of colonies [1, 17]
++: C: Color of colonies [1, 15]
